Measurements taken from ChEMBL document CHEMBL5614402, “Discovery of novel pyrazolo[1,5-a]pyrimidine derivatives as potent reversal agents against ABCB1-mediated multidrug resistance” (Eur J Med Chem, 2024).
Active and inactive are the calls of the source. The calls are words filed in the database; no cut-off is given here.

What was measured:
NCI/ADR-RES [1] = test: Reversal of paclitaxel resistance in human MCF7ADR cells assessed as reduction in paclitaxel IC50 at 5 uM pretreated with compound for 4 hrs followed by paclitaxel addition and measured after 72 hrs by MTT assay (reference value: 6.68 +/- 0.35 microM); assay type: functional, cell-based
NCI/ADR-RES [2] = test: Antiproliferative activity against human MCF7ADR cells incubated for 72 hrs by MTT assay; assay type: functional, cell-based
NCI/ADR-RES [3] = test: Reversal of paclitaxel resistance in human MCF7ADR cells assessed as reversal fold by measuring ratio of paclitaxel IC50 to paclitaxel IC50 in presence of test compound at 5 uM incubated for 72 hrs by MTT assay; assay type: functional
MCF7 [4] = test: Antiproliferative activity against human MCF7 cells incubated for 72 hrs by MTT assay; assay type: functional, cell-based; details: MCF7, 72 h
NCI/ADR-RES [5] = test: Antiproliferative activity against human MCF7ADR cells assessed as survival rate at 5 uM incubated for 72 hrs by MTT assay; assay type: functional; details: read-out: Survival
MCF7 [6] = test: Antiproliferative activity against human MCF7 cells assessed as survival rate at 5 uM incubated for 72 hrs by MTT assay; assay type: functional; details: read-out: Survival
NCI/ADR-RES [7] = test: Induction of apoptosis in human MCF7ADR cells assessed as viable cells at 10 nM by Annexin V-FITC and propidium iodide staining based flow cytometry analysis (reference value: 85.75%); assay type: functional; details: read-out: Activity
Tubulin (Homo sapiens) = Tubulin (Homo sapiens) (UniProt P68371+Q9H4B7+P0DPH7+P68366+Q13509+Q71U36+P04350+Q3ZCM7+P07437+P68363+Q9BQE3+Q6PEY2+Q13885+Q9BVA1+Q9BUF5); test: Inhibition of tubulin depolymerization in human MCF7ADR cells assessed as change in microtubule morphology at 10 nM incubated for 72 hrs; assay type: cell-based
NCI/ADR-RES [8] = test: Induction of apoptosis in human MCF7ADR cells assessed as necrotic cells at 10 nM by Annexin V-FITC and propidium iodide staining based flow cytometry analysis (reference value: 3.14%); assay type: functional
NCI/ADR-RES [9] = test: Induction of apoptosis in human MCF7ADR cells assessed as late apoptotic cells at 10 nM by Annexin V-FITC and propidium iodide staining based flow cytometry analysis (reference value: 7.24%); assay type: functional
NCI/ADR-RES [10] = test: Induction of apoptosis in human MCF7ADR cells assessed as early apoptotic cells at 10 nM by Annexin V-FITC and propidium iodide staining based flow cytometry analysis (reference value: 3.87%); assay type: functional

inhibition (Tubulin (Homo sapiens))	Compound	IC50 (NCI/ADR-RES [1])	IC50 (NCI/ADR-RES [2])	Ratio (NCI/ADR-RES [3])	IC50 (MCF7 [4])	viability at 5 µM (NCI/ADR-RES [5])	viability at 5 µM (MCF7 [6])	viability at 0.01 µM (NCI/ADR-RES [7])	Activity (NCI/ADR-RES [8])	Activity (NCI/ADR-RES [9])	Activity (NCI/ADR-RES [10])
–	COc1ccc(-c2c(C)nc3cc(-c4ccco4)nn3c2-c2cc(OC)c(OC)c(OC)c2)cc1	0.1 µM	> 20 µM	66.8	9.53 µM	93.1%	90.8%	–	–	–	–
–	COc1cc(-c2c(-c3ccc(F)cc3)c(C)nc3cc(-c4ccco4)nn23)cc(OC)c1OC	0.18 µM	> 20 µM	37.11	> 20 µM	93.8%	91.6%	–	–	–	–
inactive	CC(=O)O[C@H]1C(=O)[C@@]2(C)[C@H]([C@H](OC(=O)c3ccccc3)[C@]3(O)C[C@H](OC(=O)[C@H](O)[C@@H](NC(=O)c4ccccc4)c4ccccc4)C(C)=C1C3(C)C)[C@]1(OC(C)=O)CO[C@@H]1C[C@@H]2O [PACLITAXEL]	–	–	–	–	–	–	86.2%	2.4%	6.48%	4.93%
–	COc1cc(-c2c(-c3ccc(Br)cc3)c(C)nc3cc(-c4ccccc4)nn23)cc(OC)c1OC	0.053 µM	> 20 µM	126.03	> 20 µM	95.1%	95.2%	–	–	–	–
–	COc1cc(-c2c(C)nc3cc(C)nn3c2-c2cc(OC)c(OC)c(OC)c2)cc(OC)c1OC	0.46 µM	> 20 µM	14.52	> 20 µM	96.6%	94.4%	–	–	–	–
–	COc1ccc(-c2c(C)nc3ccnn3c2-c2cc(OC)c(OC)c(OC)c2)cc1	3.12 µM	> 20 µM	2.14	> 20 µM	> 99%	> 99%	–	–	–	–
–	COc1ccc(-c2c(C)nc3cc(-c4cccs4)nn3c2-c2cc(OC)c(OC)c(OC)c2)cc1OC	0.031 µM	> 20 µM	215.48	> 20 µM	94.6%	94.1%	–	–	–	–
–	COc1ccc(-c2c(C)nc3ccnn3c2-c2cc(OC)c(OC)c(OC)c2)cc1OC	2.35 µM	> 20 µM	2.84	> 20 µM	> 99%	> 99%	–	–	–	–
–	CCc1cc2nc(C)c(-c3ccc(OC)cc3)c(-c3cc(OC)c(OC)c(OC)c3)n2n1	0.24 µM	> 20 µM	27.83	> 20 µM	> 99%	> 99%	–	–	–	–
–	COc1cc(-c2c(-c3ccc(Br)cc3)c(C)nc3cc(-c4cccs4)nn23)cc(OC)c1OC	0.048 µM	> 20 µM	139.16	14.4 µM	94.2%	94.8%	–	–	–	–
–	COc1cc(-c2c(-c3ccc(Cl)cc3)c(C)nc3cc(-c4cccs4)nn23)cc(OC)c1OC	0.082 µM	> 20 µM	81.46	> 20 µM	94.2%	98.2%	–	–	–	–
–	COc1cc(-c2c(C)nc3cc(-c4ccccc4)nn3c2-c2cc(OC)c(OC)c(OC)c2)cc(OC)c1OC	0.03 µM	> 20 µM	222.66	> 20 µM	93.5%	96.2%	–	–	–	–
–	COc1cc(-c2c(-c3ccc(Cl)cc3)c(C)nc3cc(-c4ccccc4)nn23)cc(OC)c1OC	0.074 µM	> 20 µM	90.27	> 20 µM	90.3%	94.2%	–	–	–	–
–	COc1cc(-c2c(C)nc3cc(-c4ccco4)nn3c2-c2cc(OC)c(OC)c(OC)c2)cc(OC)c1OC	0.044 µM	> 20 µM	151.81	> 20 µM	89.9%	95.1%	–	–	–	–
